Measured values from the NIST ThermoML archive (doi:10.1016/j.fluid.2013.06.006).
± gives the expanded uncertainty stated by the source.

Columns and labels:
[1] = 293.2 K; 101.33 kPa; Liquid; Vibrating tube method
[2] = refractive index (Na D-line) (dimensionless); settings: 293.2 K; 101.33 kPa; Liquid; Standard Abbe refractometry

Structure (SMILES) | mass density [1] [kg/m3] | refractive index [2]
CCCCO [butan-1-ol] | 809.33 ± 0.26 | 1.3983 ± 0.0005
O=CO [formic acid] | 1219.5 ± 0.4 | 1.3711 ± 0.0005
CCCCCCCO [heptan-1-ol] | 821.63 ± 0.26 | 1.4244 ± 0.0005
CCCCCCO [hexan-1-ol] | 818.21 ± 0.26 | 1.4181 ± 0.0005
CCCCCO [pentan-1-ol] | 813.98 ± 0.26 | 1.41 ± 0.0005
O [water] |  | 1.3328 ± 0.0005
